Data: US20260098008A1, “COVALENT, CHEMOGENETIC ACTIVATORS FOR K2P POTASSIUM CHANNELS AND USES THEREOF” (THE REGENTS OF THE UNIVERSITY OF CALIFORNIA, priority 2022, published 2026)
Changes are numbered by the printed parent chain.

Assays:
TREK-1^CG* = biological target: T1, TREK-1^CG* (Mus musculus, UniProt P97438, S146C); assay: Whole-cell patch clamp in transfected HEK293 cells; assay type: cell-based; conditions: 20 μM; for Fold-activation (I activator/I control): whole-cell currents
T1 construct: expressed in transfected cells; host or cells: HEK293 (pIRES2-EGFP vector)
T1 sequence (P97438 1-411 isoform P97438-2 S131C): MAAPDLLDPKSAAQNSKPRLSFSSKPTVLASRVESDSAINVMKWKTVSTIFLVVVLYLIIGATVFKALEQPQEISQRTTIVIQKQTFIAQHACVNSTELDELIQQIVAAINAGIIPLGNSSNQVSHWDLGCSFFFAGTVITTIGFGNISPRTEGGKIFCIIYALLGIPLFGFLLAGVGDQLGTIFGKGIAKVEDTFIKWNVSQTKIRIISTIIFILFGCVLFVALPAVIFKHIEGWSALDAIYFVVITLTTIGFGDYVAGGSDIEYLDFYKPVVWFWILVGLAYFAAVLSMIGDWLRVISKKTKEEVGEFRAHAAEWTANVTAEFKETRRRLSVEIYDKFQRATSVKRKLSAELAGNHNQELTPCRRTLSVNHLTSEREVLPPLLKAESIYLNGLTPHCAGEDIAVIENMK
Description: (§1) Mouse K2P2.1 (TREK-1) (Genbank accession number: NP_034737.2), mouse K2P10.1 (TREK-2) (NM_001316665.1), mouse K2P4.1 (TRAAK) (NM_008431.3), human K2P4.1 (TRAAK) (NM_033310.2) and mouse K2P18.1(TRESK) (NM_207261.3) were used for this study. Point mutations were introduced by site-directed mutagenesis using custom primers and confirmed by sequencing before use. For studies using Xenopus oocytes, K2P channels were subcloned into a previously reported pGEMHE/pMO vector (46). For expression in HEK293 cells, mouse K2P2.1 (TREK-1) and mutants were expressed from a previously described pIRES2-EGFP vector in HEK293 cells (46,47). K2P2.1 (TREK-1) tandems were constructed by connecting the open reading frames for the individual subunits with a linker encoding the […] (SEQ ID NO: 19) sequence. Tandems used for HEK293 cells included an N-terminal HA tag ([…] (SEQ ID NO: 20)) on the first subunit.
50% confluent cells were co-transfected (in 35-mm diameter wells) with 10-100 ng of the K2P2.1 plasmid and 400 ng of an eGFP plasmid (for visualization) using LipofectAMINE 2000 (Invitrogen) for 24 h, after which the cells were either plated onto coverslips or the media exchanged with fresh media. Cells were plated onto Matrigel coated coverslips (BD Biosciences) 1-2 hours before experiments.
Whole-cell patch-clamp experiments with K2P2.1(TREK-1) and mutants were carried out 24-48 h after transfection. Acquisition and analysis for voltage-clamp experiments were performed using pCLAMP10 and an Axopatch 200B amplifier (Molecular Devices). Current-clamp experiments were acquired using an […] amplifier (Molecular Devices). Pipettes were pulled using a Flaming/Brown micropipette puller (P-97, Sutter Instruments) and flame-polished using a MF-830 microforge (Narishige). Electrode resistance after filling with pipette internal solution ranged from 2 to 5 MΩ. Currents were low-pass filtered at 2 kHz and sampled at 10 kHz. Pipette solution contained the following: 145 mM KCl, 3 mM MgCl2, 5 mM EGTA and 20 mM HEPES (pH 7.2 with KOH). Bath solution contained the following: 145 mM NaCl, 5 mM KCl, 1 mM CaCl2, 3 mM MgCl2 and 20 mM HEPES (pH 7.4 with NaOH). K2P2.1 currents were elicited by a 1 s ramp from −100 to +50 mV from a −80 mV holding potential. Current-clamp recordings were taken with no holding current (I=0). Only K2P2.1(TREK-1)^CG* whole-cell patches with basal currents between […] at 0 mV were used Criteria for A286F K2P2.1(TREK-1)^CG*. ML335 or CAT335 were applied at 20 μM in bath solution and were perfused at 3 ml min^−1 until potentiation stabilized (1-3 min). Data were analyzed using Clampfit 11 and GraphPad Prism 9.

K2P2.1 (TREK-1) = biological target: T2, K2P2.1 (TREK-1) (Mus musculus, UniProt P97438); assay: Two-electrode voltage clamp (TEVC) in Xenopus oocytes; assay type: cell-based; conditions: for Fold-activation (I activator/I control): currents at 0 mV
T2 construct: expressed in transfected cells; host or cells: Xenopus laevis oocytes injected with mRNA (pGEMHE/pMO vector)
T2 sequence (P97438 1-411 isoform P97438-2): T1 sequence (P97438 1-411 isoform P97438-2 S131C) with C131S
Description: as §1
Xenopus laevis oocytes were harvested according to UCSF IACUC Protocol AN129690 and digested using collagenase (Worthington Biochemical Corporation, #LS004183, 0.8-1.0 mg/mL) in Ca^21-free ND96 (96 mM NaCl, 2 mM KCl, 3.8 mM MgCl2, 5 mM HEPES pH 7.4) immediately post-harvest, as previously reported (31,33). Oocytes were maintained at 18° C. in ND96 (96 mM NaCl, 2 mM KCl, 1.8 mM CaCl2, 2 mM MgCl2, 5 mM HEPES pH 7.4) supplemented with antibiotics (100 units mL^−1 penicillin, 100 μg mL^−1 streptomycin, 50 μg mL^−1 gentimycin) and used for experiments within one week of harvest.
Defolliculated stage V-VI oocytes were microinjected with 0.5-36 ng mRNA and currents were recorded within 16-48 h hours of injection.
For recordings, oocytes were impaled with borosilicate recording microelectrodes (0.4-2.0 MΩ resistance) backfilled with 3 M KCl and were subjected to constant perfusion of ND96 at a rate of 3 ml min^−1. Recording solutions containing K2P activators were prepared immediately prior to use from DMSO stocks (20-100 mM), with final DMSO concentrations of 0.1%. Currents were evoked from a −80 mV holding potential followed by a 300 ms ramp from −150 mV to +50 mV. Data were recorded using a GeneClamp 500B amplifier (MDS Analytical Technologies) controlled by pCLAMP8 software (Molecular Devices), and digitized at 1 kHz using Digidata 1332 Å digitizer (MDS Analytical Technologies). For each recording, control solution (ND96) was perfused over a single oocyte until current was stable before switching to solutions containing the test compounds at various concentrations. Representative traces and dose response plots were generated in GraphPad Prism 9.

SMILES	Fold-activation (I activator/I control) (TREK-1^CG*) [fold]	Reversibility of activation on washout (K2P2.1 (TREK-1); 20 μM, Xenopus oocytes)	Fold-activation (I activator/I control) (K2P2.1 (TREK-1); 20 μM, Xenopus oocytes) [fold]	Emax (IML335/Icontrol) (K2P2.1 (TREK-1); TEVC at 0 mV) [fold activation]	EC50 (K2P2.1 (TREK-1); TEVC at 0 mV, normalized to initial currents) [µM]	Reversibility of activation on washout (TREK-1^CG*)	Fold-activation after compound washout (K2P2.1 (TREK-1); 20 μM, after washout, Xenopus oocytes) [fold]
CS(=O)(=O)Nc1ccc(C(=O)NCc2ccc(Cl)cc2Cl)cc1 [ML335, reference compound]	3.7 ± 0.4	immediate reversal	6.5	15.8±1.3	24 ± 4		
O=C(NCc1ccc(Cl)cc1Cl)c1ccc(N2C(=O)C=CC2=O)cc1 [CAT335]	8.5 ± 1.5		2.0±0.2			irreversible	4.0 ± 0.6
